Like-named read-outs stand apart in the source and are kept apart here.

One experiment addresses BA/F3-BCL-2 G101V cells (Homo sapiens, UniProt P10415, G101V, cells depend on it). Nature of the experiment: BA/F3 cell proliferation assay, Bcl-2 G101V. The experiment is classed as cell-based, Murine. The settings on record: 24 hrs treatment, 3% FBS, CellTiter-Glo, geometric mean of 3 experiments; read-out: Cellular proliferation assay (IC50, nM) Bcl-2 G101V; BaF3 cell. The method, then:
(§1) BA/F3 cell Proliferation Assay:
(§2) The cells were treated with a 10-point dilution series of compounds for 24 hrs. After the compound treatment, 30 μl of CellTiter-Glo reagent was added in each well. The effects on proliferation were determined using Cell TiterGlo reagent (Promega) according to the manufacturer's instructions. Luminescent signals were measured using PHERAstar FS plate reader (BMG Labtech). ICS50 values for cell viability were determined with GraphPad Prism software and were the geometric mean of 3 independent experiments.

The target in experiment [1] is Recombinant human Bcl-2 protein (Homo sapiens, UniProt P10415). Nature of the experiment: Bcl-2 TR-FRET assay. The experiment is classed as binding. The settings on record: TR-FRET, 0.05 nM Bcl-2, FITC labeled Bak peptide 0.5 nM; read-out: Biochemical assay (IC50, nM) Bcl-2 WT. The method, then: Compounds disclosed herein were tested for blocking of Bcl-2 protein with its ligand in an assay based on Time-Resolved Fluorescence Resonance Energy Transfer (TR-FRET) methodology. Recombinant human 0.05 nM Bcl-2 protein was pre-incubated with a serial dilution of compounds disclosed herein (top final concentration is 1 uM or 0.1 uM or 0.02 uM or 0.01 uM, 10 points) at room temperature for 0.5 hour in an assay buffer containing 20 mM potassium phosphate buffer, pH 7.5, 50 mM NaCl, 1 mM EDTA, 0.05% Tween-20, 0.01% BSA. […] The inhibition percentage of Bcl-2 interaction with its ligand in presence of increasing concentrations of compounds was calculated based on the TR-FRET signals. The IC50 for each compound was derived from fitting the data to the four-parameter logistic equation by Graphpad Prism software or Dotmatics.

Experiment [2] relates to Molt-4 (Bcl-xL-dependent ALL cell line). Nature of the experiment: Molt-4 cell proliferation assay. The experiment is classed as cell-based. The settings on record: CellTiter-GLO, read-out: Cellular proliferation assay (IC50, nM) Molt-4. An excerpt: Molt-4 Cell Proliferation Assay:
Each compound was serially diluted with 10 1M as the maximum concentration. The anti-proliferative IC50s of these compounds were similarly determined as a percentage of viable cells upon treatment compared to the untreated control using CellTiter-GLO luminescent assay.

In experiment [3] the target is recombinant human Bcl-2-G101V protein (Homo sapiens, UniProt P10415, G101V). Nature of the experiment: Bcl-2-G101V TR-FRET assay. The experiment is classed as binding. The settings on record: TR-FRET, 0.1 nM Bcl-2-G101V, FITC labeled Bak peptide 5 nM; read-out: Biochemical assay (IC50, nM) Bcl-2 G101V. An excerpt: The IC50 for each compound was derived from fitting the data to the four-parameter logistic equation by Graphpad Prism software or Dotmatics.

A further experiment has as its target BA/F3-BCL-2 cells (Homo sapiens, UniProt P10415). Nature of the experiment: BA/F3 cell proliferation assay, BCL-2 wild type. The experiment is classed as cell-based, Murine. The settings on record: 24 hrs treatment, 3% FBS, CellTiter-Glo, geometric mean of 3 experiments; read-out: Cellular proliferation assay (IC50, nM) Bcl-2 WT; BaF3 cell. The method, then:
as §1, §2

Experiment [4] relates to RS4;11 (BCL-2 dependent acute lymphoblastic leukemia cell line). Put plainly: RS4;11 cell proliferation assay. The experiment is classed as cell-based. The settings on record: CellTiter-GLO, read-out: Cellular proliferation assay (IC50, nM) RS4. The method, then:
RS4;11 Cell Proliferation Assay:
Each compound was serially diluted with 1 μM as the maximum concentration. To test the apoptotic effect of the compounds, the cells were seeded at 50,000 in 180 μl per well in 96-well plates and treated with 10-point dilution series of each compound for 48 hrs at 37° C. Cell viability was assessed after the treatment using CellTiter-GLO luminescent assay (Promega) according to the manufacturer's recommendations. Briefly, 30 μl of CellTiter-GLO reagent was added into 200 μl of cell culture, Mixture was agitated on an orbital shaker for 5 mins to ensure cell lysis followed by 7 mins incubation at room temperature to allow development and stabilization of luminescent signals, which corresponded to quantity of ATP and thus the quantity of metabolically active cells. Luminescent signals were measured using PHERAstar FS reader (BMG). Mean IC50 values for cell viability were determined with GraphPad Prism software.

Where [5] appears, read: Homo sapiens, RS4-11, 48 hrs treatment.

Regarding “2-(2,3-dihydropyrrolo[3′,2′:56]pyrido[2,3-b][1,4]oxazin-1(6H)-yl)-N-((4-((((1r,4r)-4-hydroxy-4-methylcyclohexyl)methyl)amino)-3-nitrophenyl)sulfonyl)-4-(2-((S)-2-(2-isopropylphenyl)pyrrolidin-1-yl)-7-azaspiro[3,5]nonan-7-yl)benzamide [Example B3]”, on BA/F3-BCL-2 G101V cells, the GI50 is 10.8 nM. Also, the IC50 in experiment [1] was 0.063 nM; in experiment [2], 4540 nM; in experiment [3] it was 0.94 nM; at BA/F3-BCL-2 cells, 1.1 nM; in experiment [4] (48 hrs treatment), 1.1 nM.
For `CC(C)c1ccccc1[C@@H]1CCCN1C1CC2(CCN(c3ccc(C(=O)NS(=O)(=O)c4cc5c(c([N+](=O)[O-])c4)N[C@H](C[C@H]4CC[C@H](O)CC4)CO5)c(Oc4cnc5[nH]ccc5c4)c3)CC2)C1` [Example A4, 2-((1H-pyrrolo[2,3-b]pyridin-5-yl)oxy)-N—(((R)-3-(((1R,4R)-4-hydroxycyclohexyl)methyl)-5-nitro-3,4-dihydro-2H-benzo[b][1,4]oxazin-7-yl)sulfonyl)-4-(2-((S)-2-(2-isopropylphenyl)pyrrolidin-1-yl)7-azaspiro[3,5]nonan-7-yl)benzamide], the GI50 on BA/F3-BCL-2 G101V cells amounted to 9.8 nM. The IC50 is 0.025 nM in experiment [1]; above 10000 nM in experiment [2] (Homo sapiens, MOLT-4); 0.86 nM in experiment [3]; 0.3 nM at BA/F3-BCL-2 cells; 0.47 nM in experiment [4] (setting [5]).
For the compound `CC(C)c1ccccc1[C@@H]1CCCN1C1CC2(CCN(c3ccc(C(=O)NS(=O)(=O)c4cc5c(c([N+](=O)[O-])c4)N[C@H](C[C@H]4CC[C@@H](O)CC4)CO5)c(Oc4cnc5[nH]ccc5c4)c3)CC2)C1` [Example A5, 2-((1H-pyrrolo[2,3-b]pyridin-5-yl)oxy)-N—(((R)-3-(((1s,4S)-4-hydroxycyclohexyl)methyl)-5-nitro-3,4-dihydro-2H-benzo[b][1,4]oxazin-7-yl)sulfonyl)-4-(2-((S)-2-(2-isopropylphenyl)pyrrolidin-1-yl)-7-azaspiro[3,5]nonan-7-yl)benzamide], the GI50 at BA/F3-BCL-2 G101V cells is 7.5 nM. For the same compound, the IC50 in experiment [1] came out at 0.024 nM; in experiment [2] (Homo sapiens, MOLT-4), 5160 nM; in experiment [3], 0.83 nM; at BA/F3-BCL-2 cells it was 0.41 nM; in experiment [4] (setting [5]) it was 1 nM.
`CC(C)c1ccccc1[C@@H]1CCCN1C1CC2(CCN(c3ccc(C(=O)NS(=O)(=O)c4ccc(NC[C@H]5CC[C@](C)(O)CC5)c([N+](=O)[O-])c4)c(N4CCCOc5nc6[nH]ccc6cc54)c3)CC2)C1` [Example B1]: the GI50 at BA/F3-BCL-2 G101V cells came out at 15.5 nM. The IC50 in experiment [1] was 0.04 nM; in experiment [2] (Homo sapiens, MOLT-4) it was 6730 nM; in experiment [3] it was 1.9 nM; at BA/F3-BCL-2 cells it was 1 nM; in experiment [4] (setting [5]), 1.7 nM.
Take `CC(C)c1ccccc1[C@@H]1CCCN1C1CC2(CCN(c3ccc(C(=O)NS(=O)(=O)c4ccc(NCC5(F)CCOCC5)c([N+](=O)[O-])c4)c(N4CCCOc5nc6[nH]ccc6cc54)c3)CC2)C1` [Example B2, (S)-2-(3,4-dihydro-2H-pyrrolo[3′,2′:5,6]pyrido[2,3-b][1,4]oxazepin-1(7H)-yl)-N-((4-(((4-fluorotetrahydro-2H-pyran-4-yl)methyl)amino)-3-nitrophenyl)sulfonyl)-4-(2-(2-(2-isopropylphenyl)pyrrolidin 1-yl)-7-azaspiro[3,5]nonan-7-yl)benzamide]: the GI50 at BA/F3-BCL-2 G101V cells was 7.8 nM. For the same compound, the IC50 was found to be 0.05 nM in experiment [1]; 5560 nM in experiment [2] (Homo sapiens, MOLT-4); 1.8 nM in experiment [3]; 0.82 nM on BA/F3-BCL-2 cells; 1.7 nM in experiment [4] (setting [5]).
In the case of `CC(C)c1ccccc1[C@@H]1CCCN1C1CC2(CCN(c3ccc(C(=O)NS(=O)(=O)c4ccc(NC[C@H]5CC[C@](C)(O)CC5)c([N+](=O)[O-])c4)c(N4c5cc6cc[nH]c6nc5OCC4C)c3)CC2)C1` (stereo partly drawn) [Example B10, N-((4-((((1R,4R)-4-hydroxy-4-methylcyclohexyl)methyl)amino)-3-nitrophenyl)sulfonyl)-4-(2-((S)-2-(2-isopropylphenyl)pyrrolidin-1-yl)-7-azaspiro[3,5]nonan-7-yl)-2-(2-methyl-2,3-dihydropyrrolo[3′2′:5,6]pyrido[2,3-b][1,4]oxazin-1(6H)-yl)benzamide], the IC50 in experiment [1] is 0.04 nM; in experiment [2] (Homo sapiens, MOLT-4), above 10000 nM; in experiment [3], 1.6 nM; in experiment [4] (setting [5]), 1 nM.
The like results for `CC(C)c1ccccc1[C@@H]1CCCN1C1CC2(C1)CN(c1ccc(C(=O)NS(=O)(=O)c3ccc(NC[C@H]4CC[C@](C)(O)CC4)c([N+](=O)[O-])c3)c(N3CCOc4nc5[nH]ccc5cc43)c1)C2` [Example B11, 2-(2,3-dihydropyrrolo[3′,2′:5,6]pyrido[2,3-b][1,4]oxazin-1(6H)-yl)-N-((4-((((1R,4R)-4-hydroxy-4-methylcyclohexyl)methyl)amino)-3-nitrophenyl)sulfonyl)-4-(6-((S)-2-(2-isopropylphenyl)pyrrolidin-1-yl)-2-azaspiro[3.3]heptan-2-yl)benzamide] were, in that order, 0.041 nM, above 10000 nM, 2.8 nM and 3.2 nM.
For `CC(C)c1ccccc1[C@@H]1CCCN1C1CC2(C1)CN(c1ccc(C(=O)NS(=O)(=O)c3ccc(NCC4(F)CCOCC4)c([N+](=O)[O-])c3)c(N3CCOc4nc5[nH]ccc5cc43)c1)C2` [Example B12, (S)-2-(2,3-dihydropyrrolo[3′,2′:5,6]pyrido[2,3-b][1,4]oxazin-1(6H)-yl)-N-((4-(((4-fluorotetrahydro-2H-pyran-4-yl)methyl)amino)-3-nitrophenyl)sulfonyl)-4-(6-(2-(2-isopropylphenyl)pyrrolidin-1-yl)-2-azaspiro[3.3]heptan-2-yl)benzamide] the same measures were 0.058 nM, 7310 nM, 3.7 nM and 3.6 nM.
As to `CC(C)c1ccccc1[C@@H]1CCCN1C1CC2(C1)CN(c1ccc(C(=O)NS(=O)(=O)c3ccc(NC[C@H]4CC[C@](C)(O)CC4)c([N+](=O)[O-])c3)c(N3CCCOc4nc5[nH]ccc5cc43)c1)C2` [Example B13, 2-(3,4-dihydro-2H-pyrrolo[3′,2′:5,6]pyrido[2,3-b][1,4]oxazepin-1(7H)-yl)-N-((4-((((1r,4r)-4-hydroxy-4-methylcyclohexyl)methyl)amino)-3-nitrophenyl)sulfonyl)-4-(6-((S)-2-(2-isopropylphenyl)pyrrolidin-1-yl)-2-azaspiro[3,3]heptan-2-yl)benzamide], the GI50 at BA/F3-BCL-2 G101V cells is 39.1 nM. Besides, the IC50 in experiment [1] was 0.094 nM; in experiment [2] (Homo sapiens, MOLT-4), above 10000 nM; in experiment [3], 2.4 nM; on BA/F3-BCL-2 cells, 2.8 nM; in experiment [4] (setting [5]) it was 5.5 nM.
As to `CC(C)c1ccccc1[C@@H]1CCCN1C1CC2(C1)CN(c1ccc(C(=O)NS(=O)(=O)c3ccc(NC[C@H]4COCCO4)c([N+](=O)[O-])c3)c(N3CCCOc4nc5[nH]ccc5cc43)c1)C2` [Example B15, N-((4-((((S)-1,4-dioxan-2-yl)methyl)amino)-3-nitrophenyl)sulfonyl)-2-(3,4-dihydro-2H-pyrrolo[3′,2′:5,6]pyrido[2,3-b][1,4]oxazepin-1(7H)-yl)-4-(6-((S)-2-(2-isopropylphenyl)pyrrolidin-1-yl)-2-azaspiro[3,3]heptan-2-yl)benzamide], the IC50 is 0.14 nM in experiment [1]; above 10000 nM in experiment [2] (Homo sapiens, MOLT-4); 5.2 nM in experiment [3]; 8 nM in experiment [4] (setting [5]).
